For assay [1], the system named is hSR-transfected CHO-K1 cells. The experiment in a line: Antagonist cAMP response (coincubation with hSCT, HTRF-LANCE cAMP assay). It is filed as cell-based, human. The conditions noted are these: Table 4; cAMP response with 5 nM hSCT plus analog 10^-12 to 10^-6 M, 30 min. As for the experimental part: Detection was subsequently performed according to the manufacturer’s instructions.
(§1) All in vitro results were analyzed in quadruplicate, and the data are expressed as the means ± SEM. Significant differences were identified using Student’s t-test at p<0.05. The dose response was analyzed using GraphPad Prism 5.0 software with a variable slope (four parameters).
For orientation: In TR-FRET formats the signal depends on donor and acceptor labels being close together.

In assay [2] the test system is hSR-transfected CHO-K1 cells. Nature of the assay: Agonist cAMP response (HTRF-LANCE cAMP assay). The conditions noted are these: for Agonistic response: Table 4, cAMP response at various doses. It is filed as cell-based, human. The procedure: The cAMP responses in hSR-transfected CHO-K1 cells were detected using the HTRF-LANCE® cAMP assay kit. After 48 h of transfection, the cells were detached by nonenzymatic treatment using Versene. The cells were counted and processed according to the manufacturer’s instructions to measure the cAMP response following cell treatment with the secretin analogs. hSCT was used as a positive control. The TRF signals (340 nm excitation/665 nm emission) were detected using a VICTOR X4 spectrofluorometer (PerkinElmer), and the cAMP concentration was determined using a standard curve.
as §1

Assay [3] deals with SNAPtag-hSR (human secretin receptor) in transfected CHO-K1 cells (Homo sapiens, UniProt P47872). Nature of the assay: FRET competitive binding assay.
SNAPtag-hSR (human secretin receptor) in transfected CHO-K1 cells, sequence (P47872 23-440): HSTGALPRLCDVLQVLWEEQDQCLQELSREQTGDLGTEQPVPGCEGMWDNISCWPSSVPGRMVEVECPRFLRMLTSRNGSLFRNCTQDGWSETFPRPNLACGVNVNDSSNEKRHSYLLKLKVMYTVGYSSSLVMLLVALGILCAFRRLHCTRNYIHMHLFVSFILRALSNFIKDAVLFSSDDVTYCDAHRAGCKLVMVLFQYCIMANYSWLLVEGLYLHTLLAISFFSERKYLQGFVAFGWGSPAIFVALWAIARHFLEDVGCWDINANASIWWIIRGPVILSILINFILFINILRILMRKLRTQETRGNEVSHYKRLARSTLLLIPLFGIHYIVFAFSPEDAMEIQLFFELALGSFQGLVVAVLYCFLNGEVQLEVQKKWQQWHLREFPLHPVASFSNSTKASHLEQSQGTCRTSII
Assay [4] concerns the target human secretin receptor (human) (UniProt P47872). Nature of the assay: FRET or BRET; competitive binding, dose response 10^-12 M to 10^-4 M of unlabelled peptide against 500 nM labelled hSCT on CHO-K1 cells with Lumi4-Tb-labelled SNAPtag-hSR, 4–8°C, 1 h; nonspecific signal with 100 μM unlabelled hSCT subtracted; four-parameter fit.

This is an account of results in publication PMC4773067 (PLoS ONE, 2016).

pIC50: −log10 of the molar value. “Also recorded” adds a separate entry of the source.

human secretin receptor (human), sequence (P47872 23-440): as above

As to `CC(C)C[C@H](NC(=O)CNC(=O)[C@H](CCC(N)=O)NC(=O)[C@H](CC(C)C)NC(=O)[C@H](CC(C)C)NC(=O)[C@H](CCCNC(=N)N)NC(=O)[C@H](CCC(N)=O)NC(=O)[C@H](CC(C)C)NC(=O)[C@H](CCCNC(=N)N)NC(=O)[C@H](C)NC(=O)[C@H](CO)NC(=O)[C@H](CC(=O)O)NC(=O)[C@H](CCC(N)=O)NC(=O)[C@H](CC(C)C)NC(=O)[C@H](CCCNC(=N)N)NC(=O)[C@H](CO)NC(=O)[C@H](CC(C)C)NC(=O)[C@H](CCC(=O)O)NC(=O)[C@H](CO)NC(=O)[C@@H](NC(=O)[C@H](Cc1ccccc1)NC(=O)[C@@H](NC(=O)CNC(=O)[C@H](CC(=O)O)NC(=O)[C@H](CO)NC(=O)[C@@H](N)Cc1c[nH]cn1)[C@@H](C)O)[C@@H](C)O)C(=O)N[C@H](C(=O)O)C(C)C` [Analog 15, Rat SCT], the Antagonistic response entry in assay [1] is “Absent”. For the same compound, in assay [2], the “agonist activity at hSR, cAMP (in words)” value is recorded as “agonist” and the Agonistic response result is “Present”.
Consider `CC(C)C[C@H](NC(=O)CNC(=O)[C@H](CCC(N)=O)NC(=O)[C@H](CC(C)C)NC(=O)[C@H](CC(C)C)NC(=O)[C@H](CCCNC(=N)N)NC(=O)[C@H](CCC(N)=O)NC(=O)[C@H](CC(C)C)NC(=O)[C@H](CCCNC(=N)N)NC(=O)[C@H](C)NC(=O)CNC(=O)[C@H](CCC(=O)O)NC(=O)[C@H](CCCNC(=N)N)NC(=O)[C@H](CC(C)C)NC(=O)[C@H](CCCNC(=N)N)NC(=O)[C@H](CO)NC(=O)[C@H](CC(C)C)NC(=O)[C@H](CCC(=O)O)NC(=O)[C@H](CO)NC(=O)[C@@H](NC(=O)[C@H](Cc1ccccc1)NC(=O)[C@@H](NC(=O)CNC(=O)[C@H](CC(=O)O)NC(=O)[C@H](CO)NC(=O)[C@@H](N)Cc1c[nH]cn1)[C@@H](C)O)[C@@H](C)O)C(=O)N[C@H](C(=O)O)C(C)C` [hSCT, human secretin, reference compound], for which, in assay [1], the Antagonistic response entry is listed as “Absent”. Moreover, the Agonistic response entry in assay [2] was “Present”.
On the same counts, the results for “H2N-Ala-Ser-Asp-Gly-Thr-Phe-Thr-Ser-Glu-Leu-Ser-Arg-Leu-Arg-Glu-Gly-Ala-Arg-Leu-Gln-Arg-Leu-Leu-Gln-Gly-Leu-Val- COOH [Analog 2, h[Ala^1]SCT]” are “Absent” and “Absent”.
Take “H2N-Arg-Glu-Gly-Ala-Arg-Leu-Gln-Arg-Leu-Leu-Gln-Gly-Leu-Val- COOH [Analog 20, Ct-SCT]”: in assay [1], the Antagonistic response entry is “Absent”. In assay [2], the Agonistic response entry is “Absent”.
With “H2N-Cit-Ser-Asp-Gly-Thr-Phe-Thr-Ser-Glu-Leu-Ser-Arg-Leu-Arg-Glu-Gly-Ala-Arg-Leu-Gln-Arg-Leu-Leu-Gln-Gly-Leu-Val- COOH [Analog 10, h[Cit^1]SCT]”, the Antagonistic response entry in assay [1] is “Absent”. Moreover, the Agonistic response entry in assay [2] is given as “Absent”.
As to “H2N-His-Pro-Asp-Gly-Thr-Phe-Thr-Ser-Glu-Leu-Ser-Arg-Leu-Arg-Glu-Gly-Ala-Arg-Leu-Gln-Arg-Leu-Leu-Gln-Gly-Leu-Val- COOH [Analog 1, h[Pro^2]SCT]”, in assay [1], the Antagonistic response entry is given as “Absent”. Besides, the Agonistic response result in assay [2] was “Absent”.
As for “H2N-His-Ser-Asp-Cha-Thr-Phe-Thr-Ser-Glu-Leu-Ser-Arg-Leu-Arg-Glu-Gly-Ala-Arg-Leu-Gln-Arg-Leu-Leu-Gln-Gly-Leu-Val- COOH [Analog 7, h[Cha^4]SCT]”, the Antagonistic response result in assay [1] is listed as “Absent”. For the same compound, the Agonistic response result in assay [2] was “Absent”.
As to “H2N-His-Ser-Asp-D-allyl,Gly-Thr-Phe-Thr-Ser-Glu-Leu-Ser-Arg-Leu-Arg-Glu-Gly-Ala-Arg-Leu-Gln-Arg-Leu-Leu-Gln-Gly-Leu-Val- COOH [Analog 5, h[(D-allyl,Gly^4]SCT]”, the Antagonistic response result in assay [1] is “Absent”. For the same compound, the Agonistic response entry in assay [2] was “Absent”.
With “H2N-His-Ser-Asp-Gly-Leu-Phe-Thr-Ser-Glu-Tyr-Ser-Lys-Met-Arg-Gly-Asn-Ala-Gln-Val-Gln-Lys-Phe-Ile-Gln-Asn-Leu-Met- COOH [Analog 17, Chicken SCT]”, the Antagonistic response entry in assay [1] is “Absent”. Further, the Agonistic response entry in assay [2] is “Absent”.
Consider “H2N-His-Ser-Asp-Gly-Thr-Phe-Thr-Ser-Glu-Leu-Ser-Arg-Leu- COOH [Analog 19, Nt-SCT]”, for which the Antagonistic response result in assay [1] is “Absent”. In assay [2], the Agonistic response result is “Absent”.
As to “H2N-His-Ser-Asp-Pro-Thr-Phe-Thr-Ser-Glu-Leu-Ser-Arg-Leu-Arg-Glu-Gly-Ala-Arg-Leu-Gln-Arg-Leu-Leu-Gln-Gly-Leu-Val- COOH [Analog 13, h[Pro^4]SCT]”, the Antagonistic response entry in assay [1] is recorded as “Absent”. In assay [2], the Agonistic response entry is recorded as “Absent”.
In the case of “H2N-His-Ser-Asp-Tyr-Thr-Phe-Thr-Ser-Glu-Leu-Ser-Arg-Leu-Arg-Glu-Gly-Ala-Arg-Leu-Gln-Arg-Leu-Leu-Gln-Gly-Leu-Val- COOH [Analog 14, h[Tyr^4]SCT]”, the Antagonistic response entry in assay [1] is “Absent”. Further, the Agonistic response entry in assay [2] is recorded as “Absent”.
As for “H2N-His-Ser-Asp-p-Cl,D-Phe^4-Thr-Phe-Thr-Ser-Glu-Leu-Ser-Arg-Leu-Arg-Glu-Gly-Ala-Arg-Leu-Gln-Arg-Leu-Leu-Gln-Gly-Leu-Val- COOH [Analog 4, h[(p-Cl,D-Phe^4]SCT]”, the Antagonistic response entry in assay [1] is reported as “Absent”. For the same compound, the Agonistic response entry in assay [2] is recorded as “Absent”.
Consider “H2N-His-Ser-D-Asp-Gly-Thr-Phe-Thr-Ser-Glu-Leu-Ser-Arg-Leu-Arg-Glu-Gly-Ala-Arg-Leu-Gln-Arg-Leu-Leu-Gln-Gly-Leu-Val- COOH [Analog 8, h[D-Asp^3]SCT]”, for which the Antagonistic response entry in assay [1] is “Absent”. In addition, the Agonistic response entry in assay [2] is listed as “Absent”.
“H2N-His-Ser-pCO2HPhe-Gly-Thr-Phe-Thr-Ser-Glu-Leu-Ser-Arg-Leu-Arg-Glu-Gly-Ala-Arg-Leu-Gln-Arg-Leu-Leu-Gln-Gly-Leu-Val- COOH [Analog 11, h[pCO2H-Phe^3]SCT]”: in assay [1], the Antagonistic response entry is on record as “Absent”. Further, the Agonistic response result in assay [2] is on record as “Absent”.
Turning to “H2N-His-Val-Asp-Gly-Arg-Phe-Thr-Ser-Glu-Phe-Ser-Arg-Ala-Arg-Gly-Ser-Ala-Ala-Ile-Arg-Lys-Ile-Ile-Asn-Ser-Ala-Leu-Ala- COOH [Analog 16, Xenopus SCT]”, the Antagonistic response entry in assay [1] is given as “Absent”. Also, the Agonistic response result in assay [2] is recorded as “Absent”.
In the case of “H2N-His-Val-Asp-Gly-Leu-Phe-Thr-Ser-Glu-Leu-Ser-Lys-Leu-Arg-Gly-Ser-Ala-Val-Ala-Arg-Ser-Phe-Thr-Asn-Ala-Val-Leu- COOH [Analog 18, Coelacanths SCT]”, in assay [1], the Antagonistic response result was “Absent”. The Agonistic response result in assay [2] is reported as “Absent”.
With “H2N-Leu-Ser-Asp-Gly-Thr-Phe-Thr-Ser-Glu-Leu-Ser-Arg-Leu-Arg-Glu-Gly-Ala-Arg-Leu-Gln-Arg-Leu-Leu-Gln-Gly-Leu-Val- COOH [Analog 3, h[Leu^1]SCT]”, the Antagonistic response entry in assay [1] is recorded as “Absent”. In addition, the Agonistic response result in assay [2] was “Absent”.
Regarding “H2N-Orn-Ser-Asp-Gly-Thr-Phe-Thr-Ser-Glu-Leu-Ser-Arg-Leu-Arg-Glu-Gly-Ala-Arg-Leu-Gln-Arg-Leu-Leu-Gln-Gly-Leu-Val- COOH [Analog 12, h[Orn^1]SCT]”, the Antagonistic response result in assay [1] is “Absent”. The Agonistic response entry in assay [2] is on record as “Absent”.
As for “H2N-Phe-Thr-Ser-Glu-Leu-Ser-Arg-Leu-Arg-Glu-Gly-Ala-Arg-Leu-Gln-Arg-Leu-Leu-Gln-Gly-Leu-Val- COOH [Analog 6, hSCT(6–27)]”, the Antagonistic response entry in assay [1] is “Absent”. For the same compound, in assay [2], the Agonistic response result is “Absent”.
As to “H2N-Tic-Ser-Asp-Gly-Thr-Phe-Thr-Ser-Glu-Leu-Ser-Arg-Leu-Arg-Glu-Gly-Ala-Arg-Leu-Gln-Arg-Leu-Leu-Gln-Gly-Leu-Val- COOH [Analog 9, h[Tic^1]SCT]”, the Antagonistic response entry in assay [1] is listed as “Absent”. For the same compound, the Agonistic response entry in assay [2] is given as “Absent”.
Regarding “human pituitary adenylate cyclase-activating polypeptide [hPACAP, reference compound]”, the “agonist activity at hSR, cAMP (in words)” value in assay [2] is “could also activate hSR to produce cAMP; also recorded: only at high concentrations”. In addition, the “in vitro binding to hSR (in words)” value in assay [3] is “only at high concentrations”.
In general, pIC50 refers to −log10 of the IC50, conventionally taken in molar units. A high value points to a low IC50. In turn, human secretin (peptide) gave a pIC50 in assay [4] of 8.79.
With “human vasoactive peptide [hVIP, reference compound]”, the “agonist activity at hSR, cAMP (in words)” value in assay [2] is listed as “could also activate hSR to produce cAMP; also recorded: only at high concentrations”.
